Results as given in patent US10478437B2, “Combination therapy to enhance the anticancer efficacy of platinum drugs” (University of Pittsburgh-of the Commonwealth System of …, priority 2014, dated 2019).
“Also recorded” adds a separate entry of the source.

Legend:
Assay type in all cases: cell-based, human
[1] = system: A2780cis cells; test: Western blot of caspase/PARP cleavage, Noxa induction, RPA32 and H2AX phosphorylation; conditions: for cleavage of caspases and PARP, induction of Noxa in combination with cisplatin: compound 20 μM + cisplatin 20 μM, 20 h, FIG. 7B, in words
Method: (§1) Whole cell lysate was prepared by lysing cells in cell lysis buffer (Cell signaling technology) containing complete protease inhibitor (Roche). Cell lysates were then cleared at 15,000 rpm for 15 min at 4° C. The protein content was quantified using a Bio-Rad Protein Assay kit (Bio-Rad Laboratories, Hercules, Calif.). The equal amount of protein was separated on Tris-glycine gels (Invitrogen). The separated proteins were blotted onto a polyvinylidene difluoride membrane and blocked overnight at 4° C. in phosphate-buffered saline containing 0.1% Tween 20 and 10% nonfat dry milk (blocking buffer). Membranes were incubated with primary antibodies in blocking buffer overnight at 4° C. Primary antibodies used were: β-actin from Sigma; Bax, Bak, Caspase-9 and cleaved Caspase-3 from Cell Signaling Technology; phospho-Histone H2AX (Ser 139) and Noxa from Millipore. Membranes were then washed and incubated in peroxidase conjugated anti-rabbit IgG (Sigma) or anti-mouse IgG (Sigma) secondary antibody for 1 h at room temperature. Membranes were developed using SuperSignal West Femto Maximum Sensitivity Substrate (Thermo Fisher Scientific).
A2780cis cells were treated with cisplatin alone, compounds alone or in combination with cisplatin at indicated concentrations for 20 h to analyze apoptotic cell death in response to treatment. […] Expression and cleavage of several major caspases (Caspase-8, Caspase-9 and Caspase-3), as well as poly(ADP-ribose) polymerase (PARP) and NOXA. A2780cis cells were treated with cisplatin (20 μM) alone, compounds (20 μM) alone or in combination with cisplatin for 20 h.
To determine the effects of the compounds on DNA damage and mitochondrial dysfunction, A2780cis cells were treated with cisplatin (20 μM) alone or the combination of cisplatin with 20 μM of compound 1-6. Replication protein A (RPA) is a single strand-specific DNA-binding protein, consisting of three subunits, RPA70, RPA32, and RPA14. RPA32 is phosphorylated in response to DNA replication stress. Western blot analysis was performed to evaluate the phosphorylation of RPA32 and histone H2AX, the induction of Noxa expression and cleavage of caspase-3. […] A2780cis cells were treated with cisplatin (50 μM) alone, 1-6 (50 μM) alone or the combination of cisplatin and compound 1-6 for 4 h. The oxygen consumption rate (OCR) was measured by a Seahorse extracellular flux analyzer.

[2] = system: cisplatin-resistant ovarian cancer cell line A2780cis; test: Caspase-3/7 activity assay (apoptotic cell death), compound alone or with cisplatin; conditions: for activation of Caspase-3/7 in combination with cisplatin compared to mdivi-1: FIG. 7A and Table 6; for activation of Caspase-3/7 in combination with cisplatin compared to mdivi-1 / activity in the screen (Caspase-3/7 activity and microscopic examination), active / inactive / Caspase-3/7 activity upon combination with cisplatin compared to cisplatin alone or compound alone: in words; for caspase-3/7 activity (Lum), compound with cisplatin: compound 20 μM with 20 μM cisplatin; for caspase-3/7 activity (Lum), compound with cisplatin / caspase-3/7 activity (Lum), compound alone / caspase-3/7 activity (Lum) with compound and cisplatin (20 μM) / caspase-3/7 activity (Lum) with compound alone: 20 h; for caspase-3/7 activity (Lum) with compound and cisplatin (20 μM) / caspase-3/7 activity (Lum) with compound alone: Table 6; for caspase-3/7 activity (Lum) with compound alone: untreated cells 9 ± 1; for activity in the screen (Caspase-3/7 activity and microscopic examination), active / inactive: alone or in the presence of cisplatin
Procedure, shortened: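 Caspase-3/7 activity in A2780cis cells treated with compound alone or with cisplatin, luminescent Caspase-Glo 3/7 read-out. Apoptotic morphology is checked microscopically just before measurement.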

[3] = system: cisplatin-resistant ovarian cancer cell line A2780cis; test: CellTiter-Blue cell viability assay, compound alone or with cisplatin or carboplatin, 24 h; conditions: for cell viability after combination with carboplatin compared to carboplatin alone: FIG. 6; for viability at 10 µM / viability at 20 µM / viability at 50 µM: Homo sapiens, A2780cis, read-out: survival (%) of cells with compound alone; for viability at 10 µM: compound 10 μM; for viability at 50 µM: compound 50 μM
Method: Data were expressed as mean±standard deviation. A Student's t test was used for the comparisons between the treatment with the combination of analogs with cisplatin and with analogs alone. P<0.05 was considered statistically significant. Combination index was calculated using CompuSyn software. A value of 0.3-0.7 for the combination index indicates synergism, 0.1-0.3 indicates strong synergism, and <0.1 indicates very strong synergism (Chou, 2006).
To further validate the activity of the identified 11 active compounds (see FIG. 3), a CellTiter-Blue cell viability assay was performed with increasing concentrations (10 μM, 20 μM and 50 μM) of the disclosed compounds (see FIG. 4 and Table 5). Cisplatin resistant ovarian cancer cells (A2780cis) were treated with a disclosed compound alone, cisplatin alone or a combination of a compound with cisplatin for 24 h to determine the effects of the compounds on cell viability.
Analysis of the effect of the disclosed compounds with another platinum-containing compound, carboplatin, was performed. A2780cis cells were treated with carboplatin alone or with the combination of carboplatin and the disclosed compounds at indicated concentrations for 24 h followed by the analysis of cell viability.

[4] = system: PEO4, SKOV3, H1299, MDA-MB-231, Ca133 cells; test: Western blot of PARP and Caspase-3 cleavage in other cisplatin-resistant cancer cells; conditions: 20 μM alone, 20 h, FIG. 9; in words
Method: FIG. 9. The combination of cisplatin and compound 1-6 triggers extensive apoptosis in various types of cisplatin- and multidrug-resistant tumor cells. Cisplatin-resistant cancer cells PEO4 (ovarian), SKOV3 (ovarian), H1299 (lung), MDA-MB-231 (breast), Ca133 (head & neck) were treated with DMSO (untreated), cisplatin (20 μM) alone, compound 1-6 (20 μM) alone, or the combination for 20 h. Cleavage of PARP and Caspase-3 were determined by western blot.
as §1
To evaluate whether the synergistic effects of the disclosed compounds and cisplatin could be extended to other types of cancer cells, breast cancer cells (MDA-MB-231), non-small cell lung carcinoma cells (H-1299), ovarian cancer cells (PEO4 and SKOV3) and head and neck cancer cells (Ca133) were treated with various combinations of cisplatin and compound 1-6 and analyzed for Caspase-3.

[5] = system: A2780cis cells; test: Short-term (3 h) exposure, cell survival by CellTiter-Blue after 48 h in compound free media; conditions: cisplatin alone, viability after two days, in words
Method: FIG. 5. Short-term exposure of A2780cis cells to the combination of cisplatin and compound 1-6 dramatically reduces cell survival. A2780cis cells were treated with increasing doses of cisplatin alone or the combination of cisplatin with compound 1-6 (20 μM) for 3 h. The compounds were then washed out. Cell survival was determined after 48 h incubation of cells in compound free media by CellTiter-Blue assay.
Further analysis was performed with compound 1-6. […] This synergism for the combination of cisplatin and 1-6 was further confirmed using a fresh sample of high chemical purity (98%). This synergistic effect was also observed using the CellTiter-Blue cell viability assay (FIG. 5) under an alternative exposure strategy that mimics in viva drug administration to test the combination effect. Considering the clearance of cisplatin over the time and the duration of exposure of tumor cells to the effective doses of the drugs in vivo (Los et al., 1989), a short-term exposure of cells to the combination of 20 μM of 1-6 with various doses of cisplatin was tested, followed by cell viability assay after two days.

[6] = Table 1, compound 20 μM, mean ± S.D. of triplicates
[7] = compound 5 μM + cisplatin 20 μM
[8] = compound 10 μM + cisplatin 20 μM
[9] = compound 20 μM + cisplatin 20 μM
[10] = compound 20 μM, 24 h, untreated cells = 100%
[11] = compound 10 μM + carboplatin 200 μM, 24 h
[12] = compound 10 μM + cisplatin 20 μM, 24 h
[13] = compound 20 μM + carboplatin 200 μM, 24 h
[14] = compound 20 μM + cisplatin 20 μM, 24 h
[15] = compound 50 μM + carboplatin 200 μM, 24 h
[16] = compound 50 μM + cisplatin 20 μM, 24 h

| Compound | cleavage of caspases and PARP, induction of Noxa in combination with cisplatin [1] | activation of Caspase-3/7 in combination with cisplatin compared to mdivi-1 [2] | caspase-3/7 activity (Lum), compound with cisplatin ([2]; Table 1) [Lum] | caspase-3/7 activity (Lum), compound alone [2, 6] [Lum] | caspase-3/7 activity (Lum), compound alone ([2]; Table 2, compound 20 μM) [Lum] | caspase-3/7 activity (Lum) with compound and cisplatin (20 μM) [2, 7] [Lum] | caspase-3/7 activity (Lum) with compound alone ([2]; compound 5 μM) [Lum] | caspase-3/7 activity (Lum) with compound and cisplatin (20 μM) [2, 8] [Lum] | caspase-3/7 activity (Lum) with compound alone ([2]; compound 10 μM) [Lum] | caspase-3/7 activity (Lum) with compound and cisplatin (20 μM) [2, 9] [Lum] | caspase-3/7 activity (Lum) with compound alone ([2]; compound 20 μM) [Lum] | activity in the screen (Caspase-3/7 activity and microscopic examination), active / inactive [2] | Caspase-3/7 activity upon combination with cisplatin compared to cisplatin alone or compound alone [2] | cell viability after combination with carboplatin compared to carboplatin alone ([3]; 24 h, in words) | viability at 10 µM ([3]; 24 h, untreated cells = 100%) [%] | viability at 20 µM [3, 10] [%] | viability at 50 µM ([3]; 24 h, untreated cells = 100%) [%] | Survival (%) of cells with compound and carboplatin (200 μM) [3, 11] | survival (%) of cells with compound and cisplatin (20 μM) [3, 12] [%] | Survival (%) of cells with compound and carboplatin (200 μM) [3, 13] [%] | other results |
| --- | --- | --- | --- | --- | --- | --- | --- | --- | --- | --- | --- | --- | --- | --- | --- | --- | --- | --- | --- | --- | --- |
| CCCn1c(=S)[nH]c2cc(OC)c(OC)cc2c1=O [Compound 1-8] | cleavage of Caspase-8, 9, 3, PARP and the induction of Noxa | more effective; also recorded: more potent than mdivi-1 | 121 ± 4 | 14 ± 2 | 14 ± 2 | 38 ± 4 | 10 ± 1 | 72 ± 1 | 10 ± 1 | 93 ± 4 | 11 ± 1 | active | increase in Caspase-3/7 activity | cell viability was reduced | 99.6 ± 2.9 | 96.3 ± 3.2 | 88.4 ± 2.1 | 89.5 + 2.1% | 53.4 ± 1.5 | 65.8 ± 3.5 | potency at enhancing the cytotoxicity of cisplatin compared to mdivi-1 ([3]; compound 10 μM with cisplatin, FIG. 4, in words): more potent than mdivi-1; survival (%) of cells with compound and cisplatin (20 μM) [3, 14]: 25.9 ± 2.3%; Survival (%) of cells with compound and carboplatin (200 μM) [3, 15]: 42.5 ± 2.3%; survival (%) of cells with compound and cisplatin (20 μM) [3, 16]: 17.9 ± 1.3% |
| Cc1ccc(-n2c(=S)[nH]c3ccccc3c2=O)cc1F [Compound 1-17] | cleavage of Caspase-8, 9, 3, PARP and the induction of Noxa | more effective; also recorded: more potent than mdivi-1 | 123 ± 5 | 10 ± 2 | 10 ± 2 | 34 ± 3 | 15 ± 8 | 76 ± 7 | 10 ± 1 | 101 ± 6 | 10 ± 1 | active | increase in Caspase-3/7 activity | cell viability was reduced | 101 ± 2.9 | 101 ± 2.1 | 101 ± 1.4 | 90.7 ± 0.9% | 63.0 ± 1.1 | 79.3 ± 3.9 | survival (%) of cells with compound and cisplatin (20 μM) [3, 14]: 39.6 ± 3.0%; Survival (%) of cells with compound and carboplatin (200 μM) [3, 15]: 69.7 ± 4.1%; survival (%) of cells with compound and cisplatin (20 μM) [3, 16]: 26.7 ± 1.4% |
| CCc1ccccc1-n1c(=S)[nH]c2ccccc2c1=O [Compound 1-19] | cleavage of Caspase-8, 9, 3, PARP and the induction of Noxa | more effective; also recorded: more potent than mdivi-1 | 136 ± 12 | 12 ± 1 | 12 ± 1 | 36 ± 3 | 9 ± 2 | 114 ± 5 | 8 ± 1 | 96 ± 11 | 9 ± 1 | active | increase in Caspase-3/7 activity | cell viability was reduced | 103 ± 1.2 | 99.6 ± 3 | 98.5 ± 1.7 | 103.5 ± 1.6% | 47.9 ± 4.8 | 70.0 ± 2.9 | survival (%) of cells with compound and cisplatin (20 μM) [3, 14]: 25.3 ± 1.0%; Survival (%) of cells with compound and carboplatin (200 μM) [3, 15]: 31.6 ± 4.2%; survival (%) of cells with compound and cisplatin (20 μM) [3, 16]: 4.9 ± 1.4% |
| N.N.[Cl][Pt][Cl] [cisplatin, reference compound] | – | – | – | 30 ± 1 | 30 ± 1 | – | – | – | – | – | 28 ± 4 | – | – | – | – | – | – | – | – | – | time of increase in the phosphorylation of RPA32 post treatment, cisplatin alone ([1]; cisplatin 20 μM alone, FIG. 8A): > 12 h; caspase-3/7 activity (Lum), compound alone ([2]; Table 3, compound 20 μM): 35 ± 4 Lum; caspase-3/7 activity (Lum), compound alone ([2]; Table 4, compound 20 μM): 35 ± 4 Lum; cell death after single compound exposure [4]: minimal effect in inducing cell death; survival (%) of cells with compound alone [3, 10]: 89.3 ± 0.6%; effect of 3 hr exposure to cisplatin alone on cell viability [5]: slight effect on cell viability |
